ChEMBL document CHEMBL1201862, “PubChem BioAssay data set” (2004)
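Briefly, cells in 96-well plates were exposed to five compound concentrations for 48 h, and endpoints were estimated by linear interpolation. GI50 = concentration required for 50% inhibition of growth.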 Active and inactive are the calls of the source. No stated cut-off is given here; in the data, active = GI50 up to about 1.1 µM and inactive = higher.

Legend:
Assay in all cases: inhibition of tumour cell growth, NCI panel, 48 h
HOP-92 = system: HOP-92
HT-29 = system: HT-29
SK-OV-3 = system: SK-OV-3
NCI-H522 = system: NCI-H522
ACHN = system: ACHN
UACC-257 = system: UACC-257
IGROV-1 = system: IGROV-1
NCI-H226 = system: NCI-H226
SK-MEL-28 = system: SK-MEL-28
OVCAR-5 = system: OVCAR-5
SN12C = system: SN12C
SR = system: SR
U-251 = system: U-251
SF-539 = system: SF-539
Malme-3M = system: Malme-3M
786-0 = system: 786-0
SNB-19 = system: SNB-19
SK-MEL-5 = system: SK-MEL-5
SNB-75 = system: SNB-75
DU-145 = system: DU-145

**Q.** How did the GI50 (HOP-92) turn out when `COC(=O)C(Cc1nc2ccccc2nc1O)/C(=N\NC(C)(C)C)C(=O)Nc1c(C)cc(Br)cc1C` (configuration not stated) was run?
**A.** 18.7 µM (inactive)

**Q.** And the GI50 (HT-29)?
**A.** 30.5 µM (inactive)

**Q.** What about the GI50 (SK-OV-3) of the same compound?
**A.** 50.5 µM (inactive)

**Q.** What about the GI50 (NCI-H522) of the same compound?
**A.** 15.1 µM (inactive)

**Q.** And the GI50 (ACHN)?
**A.** 32.9 µM (inactive)

**Q.** What about the GI50 (UACC-257) of the same compound?
**A.** 33.9 µM (inactive)

**Q.** What about the GI50 (IGROV-1) of the same compound?
**A.** 36.3 µM (inactive)

**Q.** And the GI50 (NCI-H226)?
**A.** 17.6 µM (inactive)

**Q.** And the GI50 (SK-MEL-28)?
**A.** 20 µM (inactive)

**Q.** And the GI50 (OVCAR-5)?
**A.** > 100 µM (inactive)

**Q.** What about the GI50 (SN12C) of the same compound?
**A.** 42.7 µM (inactive)

**Q.** And the GI50 (SR)?
**A.** 20.5 µM (inactive)

**Q.** What about the GI50 (U-251) of the same compound?
**A.** 19.2 µM (inactive)

**Q.** And the GI50 (SF-539)?
**A.** 19.9 µM (inactive)

**Q.** And the GI50 (Malme-3M)?
**A.** 27.6 µM (inactive)

**Q.** What about the GI50 (786-0) of the same compound?
**A.** 17.5 µM (inactive)

**Q.** What about the GI50 (SNB-19) of the same compound?
**A.** 31.1 µM (inactive)

**Q.** What about the GI50 (SK-MEL-5) of the same compound?
**A.** 18.3 µM (inactive)

**Q.** `CC1=C(C)C(=O)C(C2=CC(=O)c3ccccc3C2=O)=C(C2=CC(=O)c3ccccc3C2=O)C1=O` was tested. Which GI50 (HT-29) did it give?
**A.** 0.684 µM (active)

**Q.** What about the GI50 (SK-OV-3) of the same compound?
**A.** 20.2 µM (inactive)

**Q.** What about the GI50 (NCI-H522) of the same compound?
**A.** 2.85 µM (inactive)

**Q.** What about the GI50 (ACHN) of the same compound?
**A.** 3.27 µM (inactive)

**Q.** What about the GI50 (UACC-257) of the same compound?
**A.** 8.2 µM (inactive)

**Q.** What about the GI50 (IGROV-1) of the same compound?
**A.** 7.31 µM (inactive)

**Q.** And the GI50 (SNB-75)?
**A.** 13.2 µM (inactive)

**Q.** And the GI50 (NCI-H226)?
**A.** 13.1 µM (inactive)

**Q.** And the GI50 (SK-MEL-28)?
**A.** 7.62 µM (inactive)

**Q.** And the GI50 (OVCAR-5)?
**A.** 24.3 µM (inactive)

**Q.** And the GI50 (SN12C)?
**A.** 2.61 µM (inactive)

**Q.** What about the GI50 (DU-145) of the same compound?
**A.** 3.21 µM (inactive)

**Q.** What about the GI50 (U-251) of the same compound?
**A.** 6.43 µM (inactive)

**Q.** What about the GI50 (SF-539) of the same compound?
**A.** 6.35 µM (inactive)

**Q.** What about the GI50 (Malme-3M) of the same compound?
**A.** 0.514 µM (active)

**Q.** What about the GI50 (786-0) of the same compound?
**A.** 7.46 µM (inactive)

**Q.** And the GI50 (SNB-19)?
**A.** 4.54 µM (inactive)

**Q.** What about the GI50 (SK-MEL-5) of the same compound?
**A.** 1.4 µM (inactive)

**Q.** `COc1cc(OC)nc(Nc2c(C#N)c3nc4ccccc4n3c3ccccc23)n1` was tested. Which GI50 (HT-29) did it give?
**A.** > 100 µM (inactive)

**Q.** And the GI50 (SK-OV-3)?
**A.** 51.6 µM (inactive)

**Q.** What about the GI50 (NCI-H522) of the same compound?
**A.** 19.2 µM (inactive)

**Q.** And the GI50 (ACHN)?
**A.** 18.7 µM (inactive)

**Q.** And the GI50 (UACC-257)?
**A.** 52.7 µM (inactive)

**Q.** What about the GI50 (IGROV-1) of the same compound?
**A.** 21.8 µM (inactive)

**Q.** And the GI50 (SNB-75)?
**A.** 16.4 µM (inactive)

**Q.** And the GI50 (NCI-H226)?
**A.** 39.4 µM (inactive)

**Q.** What about the GI50 (SK-MEL-28) of the same compound?
**A.** > 100 µM (inactive)

**Q.** What about the GI50 (OVCAR-5) of the same compound?
**A.** > 100 µM (inactive)

**Q.** What about the GI50 (DU-145) of the same compound?
**A.** > 100 µM (inactive)

**Q.** And the GI50 (U-251)?
**A.** 31.3 µM (inactive)

**Q.** And the GI50 (SF-539)?
**A.** 17.6 µM (inactive)

**Q.** And the GI50 (786-0)?
**A.** 16.5 µM (inactive)

**Q.** And the GI50 (SNB-19)?
**A.** 25.1 µM (inactive)

**Q.** What about the GI50 (SK-MEL-5) of the same compound?
**A.** > 100 µM (inactive)

**Q.** With `CC(=O)Oc1ccc(CO)cc1OC(C)=O` as the compound, how does the GI50 (HOP-92) read?
**A.** > 100 µM (inactive)

**Q.** What about the GI50 (HT-29) of the same compound?
**A.** > 100 µM (inactive)

**Q.** And the GI50 (SK-OV-3)?
**A.** > 100 µM (inactive)

**Q.** What about the GI50 (NCI-H522) of the same compound?
**A.** 36.3 µM (inactive)

**Q.** What about the GI50 (ACHN) of the same compound?
**A.** > 100 µM (inactive)

**Q.** And the GI50 (UACC-257)?
**A.** > 100 µM (inactive)

**Q.** And the GI50 (SNB-75)?
**A.** > 100 µM (inactive)

**Q.** What about the GI50 (NCI-H226) of the same compound?
**A.** > 100 µM (inactive)

**Q.** What about the GI50 (SK-MEL-28) of the same compound?
**A.** > 100 µM (inactive)

**Q.** And the GI50 (OVCAR-5)?
**A.** > 100 µM (inactive)

**Q.** What about the GI50 (SN12C) of the same compound?
**A.** > 100 µM (inactive)

**Q.** And the GI50 (SR)?
**A.** > 100 µM (inactive)

**Q.** What about the GI50 (U-251) of the same compound?
**A.** > 100 µM (inactive)

**Q.** What about the GI50 (Malme-3M) of the same compound?
**A.** > 100 µM (inactive)

**Q.** What about the GI50 (786-0) of the same compound?
**A.** > 100 µM (inactive)

**Q.** And the GI50 (SNB-19)?
**A.** > 100 µM (inactive)

**Q.** And the GI50 (SK-MEL-5)?
**A.** > 100 µM (inactive)

**Q.** How did the GI50 (HOP-92) turn out when `CC(N)Cc1ccc(F)cc1` (configuration not stated) was run?
**A.** > 100 µM (inactive)

**Q.** What about the GI50 (HT-29) of the same compound?
**A.** > 100 µM (inactive)

**Q.** What about the GI50 (SK-OV-3) of the same compound?
**A.** > 100 µM (inactive)

**Q.** And the GI50 (NCI-H522)?
**A.** > 100 µM (inactive)

**Q.** And the GI50 (ACHN)?
**A.** > 100 µM (inactive)

**Q.** And the GI50 (UACC-257)?
**A.** > 100 µM (inactive)

**Q.** What about the GI50 (IGROV-1) of the same compound?
**A.** > 100 µM (inactive)

**Q.** And the GI50 (SNB-75)?
**A.** > 100 µM (inactive)

**Q.** What about the GI50 (NCI-H226) of the same compound?
**A.** > 100 µM (inactive)

**Q.** And the GI50 (SK-MEL-28)?
**A.** > 100 µM (inactive)

**Q.** What about the GI50 (OVCAR-5) of the same compound?
**A.** > 100 µM (inactive)

**Q.** And the GI50 (SN12C)?
**A.** > 100 µM (inactive)

**Q.** What about the GI50 (SR) of the same compound?
**A.** > 100 µM (inactive)

**Q.** What about the GI50 (U-251) of the same compound?
**A.** > 100 µM (inactive)

**Q.** What about the GI50 (SF-539) of the same compound?
**A.** > 100 µM (inactive)

**Q.** What about the GI50 (Malme-3M) of the same compound?
**A.** > 100 µM (inactive)

**Q.** What about the GI50 (786-0) of the same compound?
**A.** > 100 µM (inactive)

**Q.** And the GI50 (SNB-19)?
**A.** > 100 µM (inactive)

**Q.** And the GI50 (SK-MEL-5)?
**A.** > 100 µM (inactive)

**Q.** For `CSc1nc(NC2OC(COC(C)=O)C(OC(C)=O)C(OC(C)=O)C2OC(C)=O)c2c(n1)OCC2=O` (configuration not stated), which GI50 (HOP-92) is on record?
**A.** > 100 µM (inactive)

**Q.** What about the GI50 (HT-29) of the same compound?
**A.** > 100 µM (inactive)

**Q.** And the GI50 (SK-OV-3)?
**A.** > 100 µM (inactive)

**Q.** And the GI50 (NCI-H522)?
**A.** > 100 µM (inactive)

**Q.** What about the GI50 (ACHN) of the same compound?
**A.** > 100 µM (inactive)

**Q.** What about the GI50 (UACC-257) of the same compound?
**A.** > 100 µM (inactive)

**Q.** What about the GI50 (IGROV-1) of the same compound?
**A.** > 100 µM (inactive)

**Q.** What about the GI50 (SNB-75) of the same compound?
**A.** > 100 µM (inactive)

**Q.** What about the GI50 (NCI-H226) of the same compound?
**A.** > 100 µM (inactive)

**Q.** What about the GI50 (SK-MEL-28) of the same compound?
**A.** > 100 µM (inactive)

**Q.** What about the GI50 (OVCAR-5) of the same compound?
**A.** > 100 µM (inactive)

**Q.** What about the GI50 (SN12C) of the same compound?
**A.** > 100 µM (inactive)

**Q.** And the GI50 (SR)?
**A.** > 100 µM (inactive)

**Q.** What about the GI50 (U-251) of the same compound?
**A.** > 100 µM (inactive)

**Q.** And the GI50 (SF-539)?
**A.** > 100 µM (inactive)

**Q.** And the GI50 (Malme-3M)?
**A.** > 100 µM (inactive)

**Q.** And the GI50 (786-0)?
**A.** > 100 µM (inactive)

**Q.** What about the GI50 (SNB-19) of the same compound?
**A.** > 100 µM (inactive)

**Q.** What about the GI50 (SK-MEL-5) of the same compound?
**A.** > 100 µM (inactive)
